Assay results taken from US11730712B2, “Functionalized long-chain hydrocarbon mono- and di-carboxylic acids and derivatives thereof, and their use for the prevention or treatment of disease” (ESPERVITA THERAPEUTICS, INC., priority 2021, dated 2023).
“And” between values parts separate entries of the source, which are not always exact repeats. Equal values may be shown once.

Experiments:
[1] = test system: mouse primary hepatocytes; assay: 14C-acetate incorporation into total lipids in primary mouse hepatocytes; type: cell-based; conditions: Hepatocyte, 4-hour period, read-out: IC50 in μM, inhibition of 14C-acetate incorporation in total lipids
Protocol: After perfusion, collagen digested liver cells were re-suspended in William's E media (11 mM glucose) (Gibco) supplemented with 10% fetal bovine serum (FBS) (Gibco), 2 mM L-glutamine (Gibco) and 1% Antibiotic-Antimycotic (Gibco) mixture and seeded in white opaque 96-well plates. On the following day, the cells were serum-starved for 2 hours, then treated with 0 μM, 0.1 μM, 0.3 μM, 0.5 μM, 1 μM, 3 μM, 10 μM, and 100 μM of Compound I-32, Compound I-1, or Compound III-1 or Reference Compound (e.g., Compounds A-E and bempedoic acid) in the presence of ^14C-Acetate (1 μCi/ml, PerkinElmer). Each of Compound I-32, Compound I-1, Compound III-1, and Reference Compound was solubilized in 100% DMSO to a final concentration of 100 mM stock solution. In the experimental condition, the stock solution was diluted in serum free media (William's E media (11 mM glucose) (Gibco), 2 mM L-glutamine (Gibco) and 1% Anti biotic-Antimycotic) to yield the desired concentration of each compound. […] After 4 hours of treatment, the plates were washed two times with PBS (×1) and 100 μL microscint fluid (Microscint O, part #601361) was added in each well. Plates were wrapped with aluminum foil and were shaken at 250 rpm for 2 h. After 2 h of shaking, ^14C incorporation into lipid was determined by liquid scintillation counting using a TopCount NXT Microplate Scintillation and Luminescence Counter (Perkin Elmer).
The effects of Compound I-32. Compound I-1, and Compound III-1 on mouse primary hepatocyte lipogenesis are represented in Table 1. Each Compound was assayed at a concentration of 0 μM (vehicle control), 0.1 μM, 0.3 μM, 0.5 μM, 1 μM, 3 μM, 10 μM, and 100 μM, unless otherwise noted. Statistically significant inhibition was determined by one-way ANOVA and Dennett's post hoc test where appropriate. […] IC50 values were determined by nonlinear regression. All statistical analyses were carried out using GraphPad Prism 8 software. A p-value of less than or equal 0.05 was considered significant.

[2] = test system: DEN-injected mice on high fat high fructose diet; assay: NASH-HCC model by diethylnitrosamine (DEN) induction: tumors, ALT/AST, liver histology; type: in vivo, mouse; set-up: key to Fibrosis Score, individual mice: 1a: Mild (delicate) zone 3 perisinusoidal fibrosis, requires Masson's trichome stain to identify; 1b: Moderate(dense) zone 3 perisinusoidal fibrosis; 1c: Portal fibrosis only; NAFLD Activity Score, individual mice / NAFLD Activity Score, Avg: scale not given here; conditions: 4 weeks; for Fibrosis Score, individual mice / NAFLD Activity Score, individual mice / No. of Surface Tumors, individual mice / NAFLD Activity Score, Avg / No. of Surface Tumors, Avg: 100 mg/kg daily oral gavage; for No. of Surface Tumors, individual mice: mice analyzed by Nanostring; for NAFLD Activity Score, Avg / No. of Surface Tumors, Avg: n=8; for liver fibrosis (trichrome stained livers): 100 mg/kg; for NAFLD activity scores (NAS) / liver inflammation scores / liver steatosis and ballooning scores: 30 and 100 mg/kg; for plasma ALT and AST levels: 30 or 100 mg/kg, dose-dependent
Protocol: Materials and Methods. All experiments were carried out using the guidelines approved by the Animal Research Ethics Board at McMaster University, Canada. Male mice obtained from Steinberg Lab Breeding Colony housed within the McMaster University Central Animal Facility were used for these experiments. The test agents were prepared by solubilizing them in a solution of sodium bicarbonate. Compound I-32 and Compound I-1 were administered at a dose of 30 or 100 mg/kg with a dosing volume of 10 ml/kg by daily oral gavage for 4 weeks. This route was selected because it simulates the oral administration route intended for use in human clinical studies and ensures the correct dose of compound is ingested by each animal. Data are expressed as means±the standard error of the mean. Statistical comparisons were carried out using a one-way analysis of variance followed by Dunnett's post hoc test using GraphPad Prism 8 software. A p-value of less than or equal to 0.05 will be used as the criterion of significance.
Experimental Protocol. At 2 weeks of age mice were injected with diethylnitrosamine (DEN) at 25 mg/kg body weight. After weaning mice were housed with littermates and fed a normal chow diet (Teklad 8640 22/5). […] After 7.5 months, mice were bled from the tail vein and plasma alpha-fetoprotein (AFP) levels were determined. AFP is a serum biomarker of HCC progression in humans and mice treated with DEN. At 8 months, mice were divided into 5 groups, based on mean AFP levels and then received a single daily dose of either vehicle (1.5% CMC and 0.2% Tween-20) or 30 mg/kg or 100 mg/kg of Compound I-32 or Compound I-1 via gavage. Throughout the experiments mice were housed in ventilated cage racks with ad libitum access to the food and water. An automatic timing device was used to maintain an alternating 12-hour cycle of light and dark.
After 4 weeks of daily treatments mice were anesthetized by I.P. injection of Ketamine/Xylazine (150 mg/12.4 mg/kg, respectively) in saline. When anesthetic plane has been achieved, 0.5 ml of blood was drawn by cardiac puncture, and plasma was isolated and frozen in liquid nitrogen. The liver was excised intact and rinsed briefly in PBS on ice. The liver was weighed, a photo was taken and the number of visible lesions on the surface of the liver was counted and recorded. A portion of tumor-free liver (˜200 mg, caudate lobe) and up to three individual tumors were removed, flash frozen in liquid nitrogen and stored for molecular analysis. The remainder of the liver was placed in 10% formalin, fixed for 48 hours, and stored in 70% ethanol until it was embedded in paraffin, sectioned, and mounted on slides for histological analysis.
AFP assay. Before starting the treatment, mice were bled from the tail vein and plasma alpha-fetoprotein (AFP) levels were determined using mouse alpha-Feto protein/AFP Duoset ELISA kit (R&D Systems, Inc., MN, USA) as recommended by the manufacturer. 100 μl sample (1:1000 in reagent diluent) was added on each well of 96-well plate coated with mouse AFP capture antibody. Next, the plates were washed with wash buffer and 100 μl detection antibody was added to each well, followed by the Streptavidin HRP and substrate solution. The reaction was stopped by stop solution and the optical density of each well was measured in a microplate reader set to 450 nm. After measuring AFP levels, mice were divided into five groups (>800 ng/ml) and treatment was initiated.
ALT/AST assay. Plasma Alanine Transaminase (ALT) and Aspartate Transaminase (AST) levels were determined using ALT (CAK1002, Cohesion Biosciences) and AST (CAK 1004, Cohesion Biosciences) activity kits following the manufacturer instructions. 10 μl of plasma sample was added with 50 μl of substrate in 96-well plate. The reaction was carried out for 30 minutes at 37° C., detected by dye reagent I and II and absorbance was measured at 520 nm. […]

CC(C)(CCCCc1ccc(CCCCC(C)(C)C(=O)O)cc1)C(=O)O [Compound I-1, 6-[4-(5-carboxy-5-methylhexyl)-phenyl]-2,2-dimethylhexanoic acid]
IC50 [1]: 0.46 µM | reduction of the number of surface tumors ([2]; 30 mg/kg and 100 mg/kg daily oral): over 70% | Fibrosis Score, individual mice [2]: 1a (3×) and 1b (3×) and 1c (2×) | NAFLD Activity Score, individual mice [2]: 4 (4×) and 6 (2×) and 3 and 2 | No. of Surface Tumors, individual mice [2]: 8 and 6 (2×) and 11 and 10 and 14 and 7 and 3 | NAFLD Activity Score, Avg [2]: 4.1 | No. of Surface Tumors, Avg [2]: 8.1 | liver fibrosis (trichrome stained livers) [2]: fibrosis was significantly reduced | NAFLD activity scores (NAS) [2]: reduced NAFLD activity scores (NAS) at both 30 and 100 mg/kg | liver inflammation scores [2]: without altering inflammation scores | liver steatosis and ballooning scores [2]: dramatically reduced steatosis | plasma ALT and AST levels [2]: significantly decreased

CC(C)(CCCCc1cccc(CCCCC(C)(C)C(=O)O)c1)C(=O)O [Compound I-32, 6-[3-(5-carboxy-5-methylhexyl)-phenyl]-2,2-dimethylhexanoic acid]
IC50 [1]: 0.34 µM | Fibrosis Score, individual mice [2]: 1b (4×) and 1c and 1a (3×) | NAFLD Activity Score, individual mice [2]: 2 and 5 and 4 (3×) and 6 and 3 and 1 | No. of Surface Tumors, individual mice [2]: 7 and 6 and 3 (2×) and 1 and 30 and 4 and 2 | NAFLD Activity Score, Avg [2]: 3.625 | No. of Surface Tumors, Avg [2]: 7 | liver fibrosis (trichrome stained livers) [2]: fibrosis was significantly reduced | NAFLD activity scores (NAS) [2]: reduced NAFLD activity scores (NAS) at both 30 and 100 mg/kg | liver inflammation scores [2]: without altering inflammation scores | liver steatosis and ballooning scores [2]: dramatically reduced steatosis | plasma ALT and AST levels [2]: significantly decreased
